Assay results: US10822349B2, “Macrocyclic purines for the treatment of viral infections” (JANSSEN SCIENCES IRELAND UNLIMITED COMPANY, priority 2012, dated 2020)

Legend:
Type in all cases: cell-based
[1] = target: T1, human TLR8 (Homo sapiens, UniProt Q9NR97); test: TLR8 cellular reporter assay (HEK293 TLR8-NFκB-luc); conditions: lowest effective concentration; HEK293 transiently transfected with TLR8 and NFκB-luc; 6 hours incubation
T1 construct: expressed in transfected cells; host or cells: HEK293
T1 sequence (Q9NR97 27-1041): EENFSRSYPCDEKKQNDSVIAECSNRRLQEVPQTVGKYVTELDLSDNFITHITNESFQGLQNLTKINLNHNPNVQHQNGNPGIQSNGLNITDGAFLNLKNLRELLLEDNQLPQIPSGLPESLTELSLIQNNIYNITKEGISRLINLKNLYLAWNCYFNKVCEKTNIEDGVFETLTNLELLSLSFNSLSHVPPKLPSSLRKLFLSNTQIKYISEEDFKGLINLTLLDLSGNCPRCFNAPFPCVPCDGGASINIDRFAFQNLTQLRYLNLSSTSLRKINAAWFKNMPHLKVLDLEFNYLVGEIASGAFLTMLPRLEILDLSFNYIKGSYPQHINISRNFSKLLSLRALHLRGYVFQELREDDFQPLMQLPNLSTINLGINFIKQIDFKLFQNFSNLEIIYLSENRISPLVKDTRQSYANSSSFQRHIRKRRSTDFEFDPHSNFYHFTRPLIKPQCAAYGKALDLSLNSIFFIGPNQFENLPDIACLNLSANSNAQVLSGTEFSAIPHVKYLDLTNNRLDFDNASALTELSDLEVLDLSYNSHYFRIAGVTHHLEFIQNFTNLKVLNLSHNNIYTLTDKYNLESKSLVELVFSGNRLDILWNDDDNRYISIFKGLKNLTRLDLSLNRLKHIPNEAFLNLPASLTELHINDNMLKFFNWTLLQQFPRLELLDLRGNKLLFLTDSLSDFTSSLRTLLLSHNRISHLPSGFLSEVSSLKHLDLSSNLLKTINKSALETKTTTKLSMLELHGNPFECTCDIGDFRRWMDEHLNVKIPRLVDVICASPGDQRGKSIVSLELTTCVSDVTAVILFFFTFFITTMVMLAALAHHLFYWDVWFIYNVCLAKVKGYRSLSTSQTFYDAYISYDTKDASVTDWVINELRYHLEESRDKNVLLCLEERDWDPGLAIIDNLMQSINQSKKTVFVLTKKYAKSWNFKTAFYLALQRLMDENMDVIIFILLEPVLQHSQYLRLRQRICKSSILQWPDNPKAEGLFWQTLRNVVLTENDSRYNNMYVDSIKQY
Protocol: The ability of compounds to activate human TLR7 and TLR8 was assessed in a cellular reporter assay using HEK293 cells transiently transfected with a TLR7 or TLR8 expression vector and NFκB-luc reporter construct. Briefly, HEK293 cells were grown in culture medium (DMEM supplemented with 10% FCS and 2 mM Glutamine). For transfection of cells in 10 cm dishes, cells were detached with Trypsin-EDTA, transfected with a mix of CMV-TLR7 or TLR8 plasmid (750 ng), NFκB-luc plasmid (375 ng) and a transfection reagent and incubated 48 hours at 37° C. in a humidified 5% CO2 atmosphere. Transfected cells were then detached with Trypsin-EDTA, washed in PBS and resuspended in medium to a density of 1.67×10^5 cells/mL. Thirty microliters of cells were then dispensed into each well in 384-well plates, where 10 μL of compound in 4% DMSO was already present. Following 6 hours incubation at 37° C., 5% CO2, the luciferase activity was determined by adding 15 μl of Steady Lite Plus substrate (Perkin Elmer) to each well and readout performed on a ViewLux ultraHTS microplate imager (Perkin Elmer). Dose response curves were generated from measurements performed in quadruplicates. Lowest effective concentrations (LEC) values, defined as the concentration that induces an effect which is at least two fold above the standard deviation of the assay, were determined for each compound.

[2] = target: T2, human TLR7 (Homo sapiens, UniProt Q9NYK1); test: TLR7 cellular reporter assay (HEK293 TLR7-NFκB-luc); conditions: lowest effective concentration; HEK293 transiently transfected with TLR7 and NFκB-luc; 6 hours incubation
T2 construct: expressed in transfected cells; host or cells: HEK293
T2 sequence (Q9NYK1 27-1049): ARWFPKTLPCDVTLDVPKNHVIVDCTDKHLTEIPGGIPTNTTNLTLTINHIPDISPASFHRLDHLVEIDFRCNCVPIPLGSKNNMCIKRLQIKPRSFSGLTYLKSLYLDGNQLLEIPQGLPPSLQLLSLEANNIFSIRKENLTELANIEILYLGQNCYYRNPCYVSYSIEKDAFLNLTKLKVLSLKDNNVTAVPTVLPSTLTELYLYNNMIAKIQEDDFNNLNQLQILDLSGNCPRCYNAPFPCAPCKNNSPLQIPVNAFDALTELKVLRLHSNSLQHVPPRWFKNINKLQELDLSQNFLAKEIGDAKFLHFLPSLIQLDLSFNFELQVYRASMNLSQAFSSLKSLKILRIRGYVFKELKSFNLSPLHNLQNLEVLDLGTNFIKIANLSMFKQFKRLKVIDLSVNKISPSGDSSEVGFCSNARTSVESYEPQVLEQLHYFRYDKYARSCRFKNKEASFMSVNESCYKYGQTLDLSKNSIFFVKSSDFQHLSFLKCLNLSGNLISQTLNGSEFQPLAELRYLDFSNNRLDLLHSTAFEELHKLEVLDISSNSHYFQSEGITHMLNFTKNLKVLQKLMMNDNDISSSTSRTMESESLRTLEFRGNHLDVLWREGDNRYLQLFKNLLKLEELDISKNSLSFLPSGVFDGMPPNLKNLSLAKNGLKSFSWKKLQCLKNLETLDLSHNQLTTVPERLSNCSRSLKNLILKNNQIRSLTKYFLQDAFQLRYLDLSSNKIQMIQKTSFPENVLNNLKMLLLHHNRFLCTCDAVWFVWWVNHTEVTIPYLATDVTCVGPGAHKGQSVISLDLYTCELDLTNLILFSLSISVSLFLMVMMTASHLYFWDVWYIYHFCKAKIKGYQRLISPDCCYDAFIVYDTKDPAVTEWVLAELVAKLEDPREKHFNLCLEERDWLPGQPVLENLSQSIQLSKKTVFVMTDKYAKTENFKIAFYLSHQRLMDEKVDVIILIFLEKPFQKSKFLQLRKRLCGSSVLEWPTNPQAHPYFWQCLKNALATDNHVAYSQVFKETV
Procedure, shortened: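 HEK293 cells transiently co-transfected with CMV-TLR7 or TLR8 plasmid plus NFκB-luciferase reporter, 48 h post-transfection, then exposed to compound (added in 4% DMSO) for 6 h at 37 °C. Luciferase read-out; quadruplicate dose-response, LEC defined as concentration giving effect at least two-fold above assay SD.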

[3] = tested on: interferon production in human PBMC; test: Interferon production in human PBMC, read out on HEK-ISRE-luc reporter cells; conditions: Homo sapiens, PBMC, 24 h, lowest effective concentration, PBMC supernatant after overnight incubation transferred to HEK-ISRE-luc cells, read-out: PBMC HEK-ISRE-luc (LEC; μM)
Procedure, shortened: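 Human PBMCs from at least two donors (2×10^5/well, RPMI with 10% human AB serum) incubated overnight with compounds; conditioned supernatant transferred onto HEK-ISRE-luc reporter cells for 24 h. Luciferase read-out reported as LEC, with recombinant interferon alfa-2a as standard.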

SMILES	LEC on HEK293 TLR8-NFκB-luc [1]	HEK293 TLR7-NFκB-luc (LEC; μM) [2]	minimal effective concentration [3]
Nc1nc2nc3c1nc(O)n3Cc1ncccc1OCC/C=C\CO2 [Compound 39]	20.46 µM	1.16 µM	0.22 µM
COc1cc2cc(c1)OC/C=C/COc1nc(N)c3nc(O)n(c3n1)C2 [Compound 75]	0.27 µM	0.0068 µM	0.0026 µM
Nc1nc2nc3c1nc(O)n3Cc1ncccc1OCC/C=C/CO2 [Compound 40]	> 19.49 µM	1.3 µM	0.15 µM
Nc1nc2nc3c1nc(O)n3Cc1ncccc1/C=C\CCCO2 [Compound 41]	11.16 µM	1.93 µM	0.48 µM
Nc1nc2nc3c1nc(O)n3Cc1ccccc1C/C=C/CCO2 [Compound 47]	5.48 µM	3.43 µM	2.34 µM
